Measurements taken from PMC7914897, “Cytotoxic Potential of a-Azepano- and 3-Amino-3,4-SeCo-Triterpenoids” (International Journal of Molecular Sciences, 2021).
Where two headings read alike, the source gives them in different places.

Experiments:
[1] = tested on: NCI-H460 (NSC lung cancer); assay: NCI-60 screen (SRB, 48 h); details: Homo sapiens; for GI50: NCI-H460
[2] = tested on: MDA-MB-31/ATCC (Breast cancer); assay: NCI-60 screen (SRB, 48 h); details: Homo sapiens
[3] = tested on: OVCAR-4 (Ovarian cancer); assay: NCI-60 screen (SRB, 48 h); assay type: cell-based; details: Homo sapiens; for IC (TGI): OVCAR-4, 48 h; for GI50: read-out: GI50
[4] = tested on: MOLT-4 (Leukemia); assay: NCI-60 screen (SRB, 48 h); details: Homo sapiens; for GI50: MOLT-4
[5] = tested on: Leukemia subpanel; assay: cells; details: Homo sapiens; for IC (TGI): 48 h, read-out: TGI MG_MID; for GI50: read-out: GI50 MG_MID; for CC50: read-out: LC50 MG_MID
[6] = tested on: Melanoma subpanel; assay: NCI-60 screen, subpanel; details: Homo sapiens; for IC (TGI): 48 h, read-out: TGI MG_MID; for GI50: read-out: GI50 MG_MID
[7] = tested on: NCI-H522 (NSC lung cancer); assay: NCI-60 screen (SRB, 48 h); details: Homo sapiens; for GI50: NCI-H522; for IC (TGI): NCI-H522, 48 h, read-out: TGI
[8] = tested on: KM12 (Colon cancer); assay: NCI-60 screen (SRB, 48 h); details: Homo sapiens; for GI50: KM12; for IC (TGI): KM12, 48 h, read-out: TGI
[9] = tested on: LOX IMVI (Melanoma); assay: NCI-60 screen (SRB, 48 h); assay type: cell-based; details: Homo sapiens; for activity at 10 µM: 1 dose 10 µM, read-out: Growth % of the Most Sensitive Cell Lines; for GI50: read-out: GI50
[10] = tested on: NCI-H226 (NSC lung cancer); assay: NCI-60 screen (SRB, 48 h); details: Homo sapiens; for GI50: NCI-H226; for IC (TGI): NCI-H226, 48 h, read-out: TGI
[11] = tested on: OVCAR-3 (Ovarian cancer); assay: cells; details: Homo sapiens; for GI50: OVCAR-3
[12] = tested on: Colon Cancer subpanel; assay: NCI-60 screen, subpanel; details: Homo sapiens; for IC (TGI): 48 h, read-out: TGI MG_MID; for GI50: read-out: GI50 MG_MID
[13] = tested on: NCI-H322M (NSC lung cancer); assay: NCI-60 screen (SRB, 48 h); details: Homo sapiens; for IC (TGI): 48 h, read-out: TGI
[14] = tested on: 786-0 (Renal cancer); assay: NCI-60 screen (SRB, 48 h); details: Homo sapiens; for GI50: 786-0; for IC (TGI): 786-0, 48 h, read-out: TGI
[15] = tested on: NIH 3T3 (non-malignant mouse fibroblasts); assay: SRB cytotoxicity assay, 72 h; assay type: cell-based; details: Mus musculus, NIH3T3; NIH 3T3, 72 h, cut-off 30 µM; read-out: EC50
Description: The cytotoxicity of compounds 1–20 was evaluated by means of a colorimetric sulforhodamine B (SRB) assay. For all compounds, the EC50 values were determined for the human tumor cell lines A375 (malignant melanoma), HT29 (colorectal carcinoma), MCF-7 (breast carcinoma), A2780 (ovarian carcinoma), FaDu (hypopharyngeal carcinoma), and NIH 3T3 (non-malignant mouse fibroblasts).
In short, exponentially growing cells were seeded into 96-well plates on day 0 at the appropriate cell densities to prevent confluence of the cells during the period of experiment. After 24 h, the cells were treated with serial dilutions of the compounds (0–30 µM) for 72 h. The final concentration of DMSO never exceeded 0.5%, which was non-toxic to the cells. After a 72 h treatment, the supernatant medium from the 96-well plates was discarded, and the cells were fixed with 10% TCA. For a thorough fixation, the plates were allowed to rest at 4 °C. After fixation, the cells were washed in a strip washer. The washing was done four times with water using alternate dispensing and aspiration procedures. The plates were then dyed with 100 µL of 0.4% SRB for about 20 min. After dying, the plates were washed with 1% acetic acid to remove the excess of the dye and allowed to air-dry overnight. Tris base solution (200 µL, 10 mM) was added to each well and absorbance was measured at λ = 570 nm (using a 96 well plate reader, Tecan Spectra, Crailsheim, Germany). The percentages of surviving cells relative to untreated controls were determined.

[16] = tested on: A498 (Renal cancer); assay: NCI-60 screen (SRB, 48 h); details: Homo sapiens; for GI50: A498; for IC (TGI): A498, 48 h, read-out: TGI; for CC50: A498, read-out: LC50
[17] = tested on: MDA-MB-468 (Breast cancer); assay: cells; details: Homo sapiens; for GI50: MDA-MB-468; for IC (TGI): MDA-MB-468, 48 h, read-out: TGI
[18] = tested on: CNS cancer subpanel; assay: NCI-60 screen, subpanel; details: Homo sapiens; for IC (TGI): 48 h, read-out: TGI MG_MID; for GI50: read-out: GI50 MG_MID
[19] = tested on: Breast cancer subpanel; assay: NCI-60 screen, subpanel; details: Homo sapiens; for IC (TGI): 48 h, read-out: TGI MG_MID; for GI50: read-out: GI50 MG_MID
[20] = tested on: HCC-2998 (Colon cancer); assay: NCI-60 screen (SRB, 48 h); details: for GI50: HCC 2998
[21] = tested on: panel of approximately 60 cancer cell lines; assay: NCI-60 screen (SRB, 48 h), full panel; details: for activity at 10 µM / IC (TGI): 48 h; for IC (TGI): read-out: TGI MG_MID60, average over all cell lines
[22] = tested on: UACC-257 (Melanoma); assay: NCI-60 screen (SRB, 48 h); details: Homo sapiens; for GI50: UACC-257; for IC (TGI): UACC-257, 48 h, read-out: TGI
[23] = Homo sapiens, read-out: Mean Growth, %
[24] = Homo sapiens, read-out: Range of Growth, %
[25] = Homo sapiens, read-out: GI50 MG_MID60
[26] = Homo sapiens, read-out: GI50 against all human tumor cell lines

Structure (SMILES): C=C(C)[C@@H]1CCC=C2CC[C@]3(C)[C@H](CC[C@@H]4[C@@]5(C)CCCNC(C)(C)[C@@H]5CC[C@]43C)[C@H]21 [Compound 8]
- GI50 [1]: 1.22 µM
- IC (TGI) ([1]; NCI-H460, 48 h, read-out: TGI): 2.81 µM
- GI50 [2]: 1.81 µM
- IC (TGI) ([2]; 48 h, read-out: TGI): 3.35 µM
- CC50 ([2]; read-out: LC50): 6.2 µM
- IC (TGI) [3]: 3.39 µM
- GI50 ([3]; OVCAR-4): 1.86 µM
- CC50 ([3]; OVCAR-4, read-out: LC50 (the source's name)): 6.17 µM
- GI50 [4]: 1.09 µM
- IC (TGI) [5]: 5.18 µM
- GI50 [5]: 1.48 µM
- CC50 [5]: > 100 µM
- IC (TGI) [6]: 3.46 µM
- GI50 [6]: 1.84 µM
- CC50 ([6]; read-out: LC50 MG_MID): 6.73 µM
- GI50 [7]: 1.93 µM
- IC (TGI) [7]: 3.5 µM
- CC50 ([7]; NCI-H522, read-out: LC50): 6.35 µM
- GI50 [8]: 1.93 µM
- IC (TGI) [8]: 3.6 µM
- CC50 ([8]; KM12, read-out: LC50): 6.71 µM
- IC (TGI) ([9]; 48 h): 3.16 µM
- activity at 10 µM ([9]; 48 h): -99.5%
- GI50 [9]: 1.67 µM
- GI50 [10]: 1.97 µM
- IC (TGI) [10]: 3.81 µM
- GI50 [11]: 1.79 µM
- IC (TGI) ([11]; OVCAR-3, 48 h, read-out: TGI): 3.4 µM
- IC (TGI) [12]: 3.02 µM
- GI50 [12]: 1.51 µM
- CC50 ([12]; read-out: LC50 MG_MID): 5.87 µM
- GI50 [13]: 1.73 µM
- IC (TGI) [13]: 3.14 µM
- CC50 ([13]; read-out: LC50): 5.7 µM
- GI50 [14]: 1.76 µM
- IC (TGI) [14]: 3.51 µM
- EC50 [15]: 2.41 ± 0.5 µM
- GI50 [16]: 2.03 µM
- IC (TGI) [16]: 3.79 µM
- CC50 [16]: 7.08 µM
- GI50 [17]: 1.78 µM
- IC (TGI) [17]: 3.43 µM
- CC50 ([17]; MDA-MB-468, read-out: LC50): 6.6 µM
- IC (TGI) [18]: 3.31 µM
- GI50 [18]: 1.79 µM
- CC50 ([18]; read-out: LC50 MG_MID): 5.97 µM
- IC (TGI) [19]: 3.47 µM
- GI50 [19]: 1.71 µM
- CC50 ([19]; read-out: LC50 MG_MID): 8.38 µM
- Growth % of the Most Sensitive Cell Lines ([20]; HCC-2998, 1 dose 10 µM): −93.75%
- GI50 ([20]; Homo sapiens): 1.31 µM
- IC (TGI) ([20]; Homo sapiens, HCC 2998, 48 h, read-out: TGI): 2.76 µM
- Positive Cytostatic Effect (cell lines with percent growth 0 to 50 / total) ([21]; 1 dose 10 µM): 7/60
- Positive Cytotoxic Effect (cell lines with percent growth < 0 / total) ([21]; 1 dose 10 µM): 49/60
- number of cancer cell lines the compound was active against ([21]; 1 dose 10 µM): 55 cell lines
- activity at 10 µM [21, 23]: -46.7%
- activity at 10 µM [21, 24]: -99.5 to 75.9%
- IC (TGI) ([21]; Homo sapiens): 3.53 µM
- GI50 [21, 25]: 1.73 µM
- GI50 [21, 26]: < 3 µM
- GI50 ([21]; Homo sapiens, read-out: GI50 against the most sensitive cell lines): 0.2 to 0.94 µM
- GI50 [22]: 2.19 µM
- IC (TGI) [22]: 4.29 µM
- CC50 ([22]; UACC-257, read-out: LC50): 8.38 µM

Structure (SMILES): C=C(C)[C@@H]1CC[C@]2(COS(=O)(=O)c3ccc(C)cc3)CC[C@]3(C)[C@@H](CC[C@@H]4[C@@]5(C)CCCNC(C)(C)[C@@H]5CC[C@]43C)[C@@H]12 [Compound 12]
- GI50 [1]: 1.68 µM
- GI50 [2]: 1.88 µM
- IC (TGI) [3]: 3.38 µM
- GI50 ([3]; OVCAR-4): 1.86 µM
- GI50 [4]: 1.62 µM
- IC (TGI) ([4]; MOLT-4, 48 h, read-out: TGI): 3.59 µM
- IC (TGI) [5]: 4.06 µM
- GI50 [5]: 1.83 µM
- CC50 [5]: > 100 µM
- IC (TGI) [6]: 3.42 µM
- GI50 [6]: 1.87 µM
- GI50 [7]: 1.7 µM
- IC (TGI) [7]: 3.23 µM
- GI50 [8]: 1.84 µM
- IC (TGI) [8]: 3.41 µM
- activity at 10 µM ([9]; 48 h): -86.5%
- GI50 [9]: 1.72 µM
- GI50 [10]: 1.81 µM
- IC (TGI) [10]: 3.63 µM
- GI50 [11]: 1.67 µM
- IC (TGI) [12]: 3.37 µM
- GI50 [12]: 1.73 µM
- GI50 [13]: 1.76 µM
- IC (TGI) [13]: 3.16 µM
- GI50 [14]: 1.92 µM
- IC (TGI) [14]: 3.59 µM
- EC50 [15]: 1.94 ± 0.2 µM
- GI50 [16]: 1.63 µM
- IC (TGI) [16]: 3.14 µM
- CC50 [16]: 6.04 µM
- GI50 [17]: 1.74 µM
- IC (TGI) [17]: 3.33 µM
- IC (TGI) [18]: 3.49 µM
- GI50 [18]: 1.79 µM
- IC (TGI) [19]: 3.5 µM
- GI50 [19]: 1.71 µM
- GI50 ([20]; Homo sapiens): 1.58 µM
- Positive Cytostatic Effect (cell lines with percent growth 0 to 50 / total) ([21]; 1 dose 10 µM): 11/60
- number of cancer cell lines the compound was active against ([21]; 1 dose 10 µM): 39 cell lines
- activity at 10 µM [21, 23]: -3.21%
- activity at 10 µM [21, 24]: -94.4 to 98.7%
- IC (TGI) ([21]; Homo sapiens): 3.43 µM
- GI50 [21, 25]: 1.77 µM
- GI50 [21, 26]: < 3 µM
- CC50 ([21]; Homo sapiens, read-out: LC50 MG_MID60, average over all cell lines): 5.84 µM
- GI50 [22]: 1.97 µM
- IC (TGI) [22]: 3.65 µM
